Test results: patent US11173151B2, “Substituted triazole derivatives and uses thereof” (BAYER AKTIENGESELLSCHAFT, priority 2017, dated 2021)

Key:
[1] = target: T1, human V2 receptor (Homo sapiens, UniProt P30518); assay: Cellular in vitro assay for determining vasopressin receptor activity, V2 receptor cell line (CHO, CRE-luciferase); format: cell-based; settings: CHO cell line transfected with human V2 receptor; [Arg8]-vasopressin at EC50 concentration, 3 hours; read-out: IC50 hV2
T1 construct: expressed in transfected cells; host or cells: CHO K1 (ATCC) expressing firefly luciferase under a CRE-responsive promoter
T1 sequence (P30518 whole entry): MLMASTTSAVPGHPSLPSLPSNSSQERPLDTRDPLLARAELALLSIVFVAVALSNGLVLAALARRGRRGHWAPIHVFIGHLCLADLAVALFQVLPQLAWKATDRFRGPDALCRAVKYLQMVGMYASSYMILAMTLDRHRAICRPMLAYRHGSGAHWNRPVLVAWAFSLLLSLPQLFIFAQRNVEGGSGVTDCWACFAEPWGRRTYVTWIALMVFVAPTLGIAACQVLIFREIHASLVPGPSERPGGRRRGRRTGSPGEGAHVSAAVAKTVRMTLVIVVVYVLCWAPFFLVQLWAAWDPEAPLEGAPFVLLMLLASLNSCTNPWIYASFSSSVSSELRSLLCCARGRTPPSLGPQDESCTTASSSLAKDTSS

[2] = target: T2, human V1a receptor (Homo sapiens, UniProt P37288); assay: Cellular in vitro assay for determining vasopressin receptor activity, V1a receptor cell line (CHO, aequorin luminescence); format: cell-based; settings: for IC50: CHO cell line transfected with human V1a receptor, [Arg]-vasopressin at EC50 concentration, read-out: IC50 hV1a; for ratio IC50 hV2/hV1a: selectivity ratio IC50 hV2 / IC50 hV1a
T2 construct: expressed in transfected cells; host or cells: CHO K1 (ATCC), also stably transfected with a modified aequorin
T2 sequence (P37288 whole entry): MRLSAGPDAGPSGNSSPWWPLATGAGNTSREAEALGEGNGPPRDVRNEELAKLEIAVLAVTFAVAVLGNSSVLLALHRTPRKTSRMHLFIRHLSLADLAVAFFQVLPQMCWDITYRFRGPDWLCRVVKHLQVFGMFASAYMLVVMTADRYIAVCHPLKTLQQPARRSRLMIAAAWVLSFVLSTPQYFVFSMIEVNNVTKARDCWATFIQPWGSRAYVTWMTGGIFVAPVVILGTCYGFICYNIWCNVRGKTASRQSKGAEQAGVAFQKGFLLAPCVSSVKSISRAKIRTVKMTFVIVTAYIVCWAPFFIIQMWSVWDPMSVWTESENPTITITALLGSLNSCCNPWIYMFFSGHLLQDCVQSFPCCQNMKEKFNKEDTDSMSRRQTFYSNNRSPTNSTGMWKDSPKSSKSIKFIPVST
How it was run: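 Antagonism is measured in stable CHO K1 transfectants coexpressing the Gαq-coupled receptor and a calcium-sensitive aequorin photoprotein. Agonist challenge uses [Arg]-vasopressin at EC50 after a 10-minute compound exposure; IC50 values come from the luminescence signal.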

IC50 [1] [nM] | IC50 [2] [nM] | ratio IC50 hV2/hV1a [2] | SMILES
67.5 | 1.21 | 55.8 | O=C(Nc1cccc(O)c1)c1ccccc1-n1cnc(Cn2nc(-c3ccc(Cl)cc3)n(C[C@H](O)C(F)(F)F)c2=O)n1 [Example 227, 2-[3-({3-(4-Chlorophenyl)-5-oxo-4-[(2S)-3,3,3-trifluoro-2-hydroxypropyl]-4,5-dihydro-1H-1,2,4-triazol-1-yl}methyl)-1H-1,2,4-triazol-1-yl]-N-(3-hydroxyphenyl)benzamide]
150 | 5.65 | 26.5 | Cc1cc(NC(=O)c2ccccc2-n2cnc(Cn3nc(-c4ccc(Cl)cc4)n(C[C@H](O)C(F)(F)F)c3=O)n2)ccc1F [Example 228, 2-[3-({3-(4-Chlorophenyl)-5-oxo-4-[(2S)-3,3,3-trifluoro-2-hydroxypropyl]-4,5-dihydro-1H-1,2,4-triazol-1-yl}methyl)-1H-1,2,4-triazol-1-yl]-N-(4-fluoro-3-methylphenyl)benzamide]
49.5 | 2.35 | 21.1 | Cc1ccc(F)cc1NC(=O)c1ccccc1-n1cnc(Cn2nc(-c3ccc(Cl)cc3)n(C[C@H](O)C(F)(F)F)c2=O)n1 [Example 229, 2-[3-({3-(4-Chlorophenyl)-5-oxo-4-[(2S)-3,3,3-trifluoro-2-hydroxypropyl]-4,5-dihydro-1H-1,2,4-triazol-1-yl}methyl)-1H-1,2,4-triazol-1-yl]-N-(5-fluoro-2-methylphenyl)benzamide]
56.5 | 8.5 | 6.6 | Cc1ccnc(NC(=O)c2ccccc2-n2cnc(Cn3nc(-c4ccc(Cl)cc4)n(C[C@H](O)C(F)(F)F)c3=O)n2)c1 [Example 230, 2-[3-({3-(4-Chlorophenyl)-5-oxo-4-[(2S)-3,3,3-trifluoro-2-hydroxypropyl]-4,5-dihydro-1H-1,2,4-triazol-1-yl}methyl)-1H-1,2,4-triazol-1-yl]-N-(4-methylpyridin-2-yl)benzamide]
535 | 2.2 | 243.2 | CONC(=O)c1ccccc1-n1cnc(Cn2nc(-c3ccc(Cl)cc3)n(C[C@H](O)C(F)(F)F)c2=O)n1 [Example 232, 2-[3-({3-(4-Chlorophenyl)-5-oxo-4-[(2S)-3,3,3-trifluoro-2-hydroxypropyl]-4,5-dihydro-1H-1,2,4-triazol-1-yl}methyl)-1H-1,2,4-triazol-1-yl]-N-methoxybenzamide]
6700 | 14.4 | 463.7 | N[C@H]1CCCC[C@@H]1NC(=O)c1ccccc1-n1cnc(Cn2nc(-c3ccc(Cl)cc3)n(C[C@H](O)C(F)(F)F)c2=O)n1 [Example 233, N-[(1S,2S)-2-Aminocyclohexyl]-2-[3-({3-(4-chlorophenyl)-5-oxo-4-[(2S)-3,3,3-trifluoro-2-hydroxypropyl]-4,5-dihydro-1H-1,2,4-triazol-1-yl}methyl)-1H-1,2,4-triazol-1-yl]benzamide]
2900 | 6.95 | 417.3 | N[C@@H]1CCCC[C@@H]1NC(=O)c1ccccc1-n1cnc(Cn2nc(-c3ccc(Cl)cc3)n(C[C@H](O)C(F)(F)F)c2=O)n1 [Example 234, N-[(1S,2R)-2-Aminocyclohexyl]-2-[3-({3-(4-chlorophenyl)-5-oxo-4-[(2S)-3,3,3-trifluoro-2-hydroxypropyl]-4,5-dihydro-1H-1,2,4-triazol-1-yl}methyl)-1H-1,2,4-triazol-1-yl]benzamide]
355 | 8.7 | 40.8 | O=C(NCc1ccc(F)cc1)c1ccccc1-n1cnc(Cn2nc(-c3ccc(Cl)cc3)n(C[C@H](O)C(F)(F)F)c2=O)n1 [Example 235, 2-[3-({3-(4-Chlorophenyl)-5-oxo-4-[(2S)-3,3,3-trifluoro-2-hydroxypropyl]-4,5-dihydro-1H-1,2,4-triazol-1-yl}methyl)-1H-1,2,4-triazol-1-yl]-N-(4-fluorobenzyl)benzamide]
340 | 7.05 | 48.2 | O=C(NCc1cccc(F)c1)c1ccccc1-n1cnc(Cn2nc(-c3ccc(Cl)cc3)n(C[C@H](O)C(F)(F)F)c2=O)n1 [Example 236, 2-[3-({3-(4-Chlorophenyl)-5-oxo-4-[(2S)-3,3,3-trifluoro-2-hydroxypropyl]-4,5-dihydro-1H-1,2,4-triazol-1-yl}methyl)-1H-1,2,4-triazol-1-yl]-N-(3-fluorobenzyl)benzamide]
445 | 15.5 | 28.7 | C[C@H](NC(=O)c1ccccc1-n1cnc(Cn2nc(-c3ccc(Cl)cc3)n(C[C@H](O)C(F)(F)F)c2=O)n1)C(N)=O [Example 237, N-[(2S)-1-Amino-1-oxopropan-2-yl]-2-[3-({3-(4-chlorophenyl)-5-oxo-4-[(2S)-3,3,3-trifluoro-2-hydroxypropyl]-4,5-dihydro-1H-1,2,4-triazol-1-yl}methyl)-1H-1,2,4-triazol-1-yl]benzamide]
44.5 | 13.5 | 3.3 | Cc1nnc(NC(=O)c2ccccc2-n2cnc(Cn3nc(-c4ccc(Cl)cc4)n(C[C@H](O)C(F)(F)F)c3=O)n2)s1 [Example 238, 2-[3-({3-(4-Chlorophenyl)-5-oxo-4-[(2S)-3,3,3-trifluoro-2-hydroxypropyl]-4,5-dihydro-1H-1,2,4-triazol-1-yl}methyl)-1H-1,2,4-triazol-1-yl]-N-(5-methyl-1,3,4-thiadiazol-2-yl)benzamide]
240 | 7.35 | 32.7 | O=C(NCc1ccc(F)c(F)c1)c1ccccc1-n1cnc(Cn2nc(-c3ccc(Cl)cc3)n(C[C@H](O)C(F)(F)F)c2=O)n1 [Example 239, 2-[3-({3-(4-Chlorophenyl)-5-oxo-4-[(2S)-3,3,3-trifluoro-2-hydroxypropyl]-4,5-dihydro-1H-1,2,4-triazol-1-yl}methyl)-1H-1,2,4-triazol-1-yl]-N-(3,4-difluorobenzyl)benzamide]
300 | 12.5 | 24.0 | Cc1ccnc(NC(=O)c2ccccc2-n2cnc(Cn3nc(-c4ccc(Cl)cc4)n(C[C@H](O)C(F)(F)F)c3=O)n2)n1 [Example 240, 2-[3-({3-(4-Chlorophenyl)-5-oxo-4-[(2S)-3,3,3-trifluoro-2-hydroxypropyl]-4,5-dihydro-1H-1,2,4-triazol-1-yl}methyl)-1H-1,2,4-triazol-1-yl]-N-(4-methylpyrimidin-2-yl)benzamide]
73.5 | 2.2 | 33.4 | O=C(NCCF)c1ccccc1-n1cnc(Cn2nc(-c3ccc(Cl)cc3)n(C[C@H](O)C(F)(F)F)c2=O)n1 [Example 241, 2-[3-({3-(4-Chlorophenyl)-5-oxo-4-[(2S)-3,3,3-trifluoro-2-hydroxypropyl]-4,5-dihydro-1H-1,2,4-triazol-1-yl}methyl)-1H-1,2,4-triazol-1-yl]-N-(2-fluoroethyl)benzamide]
126 | 5.7 | 22.2 | O=C(NCc1c(F)cccc1F)c1ccccc1-n1cnc(Cn2nc(-c3ccc(Cl)cc3)n(C[C@H](O)C(F)(F)F)c2=O)n1 [Example 242, 2-[3-({3-(4-Chlorophenyl)-5-oxo-4-[(2S)-3,3,3-trifluoro-2-hydroxypropyl]-4,5-dihydro-1H-1,2,4-triazol-1-yl}methyl)-1H-1,2,4-triazol-1-yl]-N-(2,6-difluorobenzyl)benzamide]
540 | 22.5 | 24.0 | O=C(NCc1cc(F)cc(F)c1)c1ccccc1-n1cnc(Cn2nc(-c3ccc(Cl)cc3)n(C[C@H](O)C(F)(F)F)c2=O)n1 [Example 243, 2-[3-({3-(4-Chlorophenyl)-5-oxo-4-[(2S)-3,3,3-trifluoro-2-hydroxypropyl]-4,5-dihydro-1H-1,2,4-triazol-1-yl}methyl)-1H-1,2,4-triazol-1-yl]-N-(3,5-difluorobenzyl)benzamide]
230 | 7.3 | 31.5 | Cc1noc(NC(=O)c2ccccc2-n2cnc(Cn3nc(-c4ccc(Cl)cc4)n(C[C@H](O)C(F)(F)F)c3=O)n2)c1C [Example 244, 2-[3-({3-(4-Chlorophenyl)-5-oxo-4-[(2S)-3,3,3-trifluoro-2-hydroxypropyl]-4,5-dihydro-1H-1,2,4-triazol-1-yl}methyl)-1H-1,2,4-triazol-1-yl]-N-(3,4-dimethyl-1,2-oxazol-5-yl)benzamide]
810 | 6.45 | 125.6 | CC(C)=CCNC(=O)c1ccccc1-n1cnc(Cn2nc(-c3ccc(Cl)cc3)n(C[C@H](O)C(F)(F)F)c2=O)n1 [Example 245, 2-[3-({3-(4-Chlorophenyl)-5-oxo-4-[(2S)-3,3,3-trifluoro-2-hydroxypropyl]-4,5-dihydro-1H-1,2,4-triazol-1-yl}methyl)-1H-1,2,4-triazol-1-yl]-N-(3-methylbut-2-en-1-yl)benzamide]
1200 | 4.55 | 263.7 | O=C(N[C@H]1CC[C@H](O)CC1)c1ccccc1-n1cnc(Cn2nc(-c3ccc(Cl)cc3)n(C[C@H](O)C(F)(F)F)c2=O)n1 [Example 246, 2-[3-({3-(4-Chlorophenyl)-5-oxo-4-[(2S)-3,3,3-trifluoro-2-hydroxypropyl]-4,5-dihydro-1H-1,2,4-triazol-1-yl}methyl)-1H-1,2,4-triazol-1-yl]-N-(trans-4-hydroxycyclohexyl)benzamide]
10.4 | 2.4 | 4.4 | O=C(Nc1ccccc1O)c1ccccc1-n1cnc(Cn2nc(-c3ccc(Cl)cc3)n(C[C@H](O)C(F)(F)F)c2=O)n1 [Example 247, 2-[3-({3-(4-Chlorophenyl)-5-oxo-4-[(2S)-3,3,3-trifluoro-2-hydroxypropyl]-4,5-dihydro-1H-1,2,4-triazol-1-yl}methyl)-1H-1,2,4-triazol-1-yl]-N-(2-hydroxyphenyl)benzamide]
